Values of other authors in patent US20230144779A1, “FORMULATIONS AND METHOD FOR TREATMENT OF INFLAMMATORY DISEASES” (VYOME THERAPEUTICS INC., priority 2019, published 2023).

## COc1c(C)c2c(c(O)c1C/C=C(\C)CCC(=O)O)C(=O)OC2 [Mycophenolic acid (MPA), Mycophenolic acid]
  solubility: Practical insoluble, 63 mcg/ml. MPA as such is not available in the market, it is available as salt form Hydrophilic nature as compared to its ester prodrug
